Assay [1] relates to Ste2-like fungal mating GPCRs expressed in S. cerevisiae. Nature of the assay: GPCR on-off activity and dose response assay (FUS1 promoter coRFP fluorescent reporter, strain JTy014, synthetic peptide ligand). The following applies: for Hill Slope: Hill slope of 4-parameter fit; for Bttm: bottom of 4-parameter fit of the fluorescence dose response curve (basal activation); for Fold Change: fold-change activation from Top and Bttm of the fit; for Span: span of 4-parameter fit of the fluorescence dose response curve; for Top: top of 4-parameter fit of the fluorescence dose response curve (maximal activation). It is filed as cell-based, Ascomycete fungi (expressed in S. cerevisiae). On the set-up: EC50: unit: log10 M. The protocol: GPCR on-off activity and dose response assay. GPCR activity and response to increasing dosage of synthetic peptide ligand was measured in strain JTy014 using the genomically integrated FUS1-promoter controlled coRFP as a fluorescent reporter. JTy014 strains carrying the appropriate GPCR expression plasmid were assayed in 96-well microtiter plates using 200 μl total volume, cultured at 30° C. and 800 RPM. Cells were seeded at an A600 of 0.3 (Note: all herein reported cell density values are based on A600 measurements in 96-well plates of a 200 μl volume of cultures with a path length of ˜0.3 cm performed in an Infinite M200 plate reader from Tecan) in SC media lacking uracil (selective component). All measurements were performed in triplicates. RFP fluorescence (excitation: 588 nm, emission: 620 nm) and culture turbidity (A600) were measured after 8 hours using an Infinite M200 plate reader (Tecan). Since the optical density values were outside the linear range of the photodetector, all optical density values were first corrected using the following formula to give true optical density values: […]
where Ameas is the measured optical density, Asat is the saturation value of the photodetector and k is the true optical density at which the detector reaches half saturation of the measured optical density^36. Dose-response was measured at different concentrations (11 five-fold dilutions in H2O starting at 40 μM peptide, H2O was used as “no peptide” control) of the appropriate synthetic peptide ligand. All fluorescence values were normalized by the A600, and plotted against the log(10)-converted peptide concentrations. Data were fit to a four-parameter non-linear regression model using Prism (GraphPad) in order to extract GPCR-specific values for basal activation, maximal activation, EC50 and the Hill coefficient. Fold-activation was calculated for each GPCR as the maximum A600-normalized fluorescence of peptide-treated cells divided by the A600 normalized fluorescence value of water-treated cells.

The target of assay [2] is T1, Hj.Ste2, Ste2-like mating GPCR of Hypocrea jecorina (Hypocrea jecorina).
T1 chain: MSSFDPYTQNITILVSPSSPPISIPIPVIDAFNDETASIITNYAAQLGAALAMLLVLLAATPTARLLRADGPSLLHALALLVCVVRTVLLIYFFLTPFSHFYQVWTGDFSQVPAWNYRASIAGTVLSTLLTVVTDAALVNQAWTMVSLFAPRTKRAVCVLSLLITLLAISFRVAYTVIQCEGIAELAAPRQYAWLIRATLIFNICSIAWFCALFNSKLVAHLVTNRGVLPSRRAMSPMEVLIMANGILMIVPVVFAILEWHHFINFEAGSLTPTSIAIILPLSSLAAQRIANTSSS
Nature of the assay: cell-based or functional assay.

Assay [3] has as its target T2, Le.Ste2, Ste2-like mating GPCR of Lodderomyces elongisporous (Lodderomyces elongisporous).
T2 chain: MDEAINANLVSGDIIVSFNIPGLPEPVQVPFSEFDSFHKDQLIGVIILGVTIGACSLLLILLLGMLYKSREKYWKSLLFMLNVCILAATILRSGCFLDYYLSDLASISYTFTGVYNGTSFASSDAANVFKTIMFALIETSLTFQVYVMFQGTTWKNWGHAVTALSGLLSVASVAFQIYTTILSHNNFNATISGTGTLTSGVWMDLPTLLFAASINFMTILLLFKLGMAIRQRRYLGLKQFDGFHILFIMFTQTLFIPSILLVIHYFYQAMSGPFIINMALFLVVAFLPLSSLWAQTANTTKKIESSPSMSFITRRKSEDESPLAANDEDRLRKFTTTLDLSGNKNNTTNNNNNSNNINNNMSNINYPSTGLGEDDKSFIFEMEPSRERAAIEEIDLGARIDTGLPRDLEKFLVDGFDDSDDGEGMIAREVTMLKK
Description: cell-based or functional assay.

For assay [4], the target named is T3, Bb.Ste2, Ste2-like mating GPCR of Beauvaria bassiana (Beauvaria bassiana).
T3 chain: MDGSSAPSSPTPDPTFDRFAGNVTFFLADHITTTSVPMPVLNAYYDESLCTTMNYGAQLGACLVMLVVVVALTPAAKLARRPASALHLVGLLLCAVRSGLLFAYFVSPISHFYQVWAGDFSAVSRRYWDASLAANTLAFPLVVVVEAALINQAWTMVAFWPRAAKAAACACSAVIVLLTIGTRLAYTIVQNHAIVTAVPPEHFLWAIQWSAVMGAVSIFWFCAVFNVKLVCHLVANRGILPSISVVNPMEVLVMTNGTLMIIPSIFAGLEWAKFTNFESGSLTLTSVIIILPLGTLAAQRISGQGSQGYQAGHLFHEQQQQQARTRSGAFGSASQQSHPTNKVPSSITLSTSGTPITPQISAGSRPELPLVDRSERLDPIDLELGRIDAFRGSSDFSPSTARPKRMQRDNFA
Description: cell-based or functional assay.

Assay [5] addresses T4, Bc.Ste2, Ste2-like mating GPCR of Botrytis cinerea (Botrytis cinerea).
T4 chain: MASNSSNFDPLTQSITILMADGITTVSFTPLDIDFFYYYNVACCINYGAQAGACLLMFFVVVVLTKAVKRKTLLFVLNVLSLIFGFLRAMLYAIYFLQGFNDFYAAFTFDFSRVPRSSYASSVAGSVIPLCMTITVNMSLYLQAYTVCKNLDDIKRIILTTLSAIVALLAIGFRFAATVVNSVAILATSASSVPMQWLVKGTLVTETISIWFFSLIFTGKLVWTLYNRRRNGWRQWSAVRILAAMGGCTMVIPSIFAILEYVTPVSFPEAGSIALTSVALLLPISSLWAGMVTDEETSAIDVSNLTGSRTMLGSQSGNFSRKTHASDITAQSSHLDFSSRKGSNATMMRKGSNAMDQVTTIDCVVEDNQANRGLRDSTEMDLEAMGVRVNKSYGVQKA
Description: cell-based or functional assay.

The mark [6] stands for this setting: peptide/GPCR pair, synthetic cognate peptide, fluorescence read-out, 4-parameter fit of dose response curves (FIG. 6), values given as negative (log) numbers.

Read-outs that look alike come from different tables or passages of the source. Ends that are not written are not given here. Peptide text beside a SMILES is read from it.

As for `CC[C@H](C)[C@H](NC(=O)[C@H](Cc1c[nH]c2ccccc12)NC(=O)CN)C(=O)NCC(=O)N[C@@H](CCCNC(=N)N)C(=O)N[C@@H](CS)C(=O)NCC(=O)N[C@H](C(=O)N1CCC[C@H]1C(=O)NCC(=O)N[C@@H](CO)C(=O)N[C@@H](CO)C(=O)N[C@@H](CS)C(=O)O)C(C)C` [Bm] (H-GWIGRCGVPGSSC-OH; N-terminus and C-terminus assumed), in assay [1], the “Hill Slope” value amounted to 1.2, the Bttm turned out to be 30.3, the “Fold Change” value is given as 5.2 and the Span amounted to 128.4. Moreover, the Top in assay [1] was determined as 158.8. For the same molecule, the EC50 in assay [1] (setting [6]) is on record as −6.7.
In the case of FSWNYRLKWQPIS [Cn], in assay [1], the “Hill Slope” value was determined as 1.1, the Bttm turned out to be 29.7, the “Fold Change” value came to 5.1 and the Span was 122.5. Further, the Top in assay [1] was 152.2. Moreover, the EC50 in assay [1] (setting [6]) was −7.4.
“S. cerevisiae Ste2: natural S. cerevisiae mating GPCR; value is its sensitivity to its cognate peptide ligand”: in assay [1] (cognate synthetic peptide, fluorescence/A600 after 8 hours, four-parameter fit, read-out: EC50 (sensitivity of the GPCR for its cognate ligand)), the EC50 is 1.25 nM.
Regarding H-NWHWLRLDPGQPLY-OH [Sca], in assay [1], the “Hill Slope” value worked out at 0.7, the Bttm is 24.3, the “Fold Change” value is 6.4 and the Span was 131.1. For the same molecule, in assay [1], the Top stood at 155.4. Besides, the EC50 in assay [1] (setting [6]) is recorded as −8.1.
As for H-KPHWTTYGYYEPQ-OH [Cp], in assay [1], the “Hill Slope” value is 0.8, the Bttm came out at 36.2, the “Fold Change” value is on record as 7.0 and the Span is 217.8. Moreover, in assay [1], the Top came out at 254.0. Further, in assay [1] (setting [6]), the EC50 is recorded as −8.5.
Turning to H-WSWITLRPGQPIF-OH [Kl], in assay [1], the “Hill Slope” value was 0.8, the Bttm turned out to be 37.2, the “Fold Change” value is reported as 6.0 and the Span was determined as 185.9. Further, the Top in assay [1] is on record as 223.1. Also, in assay [1] (setting [6]), the EC50 was −7.3.
As to H-WHWVRLRKGQGLF-OH [Cg], in assay [1], the “Hill Slope” value is on record as 2.4, the Bttm worked out at 30.5, the “Fold Change” value turned out to be 7.0 and the Span was found to be 183.0. In assay [1], this molecule returned a Top of 213.6. The EC50 in assay [1] (setting [6]) was −5.9.
With H-KFKFRLTRYGWFSPN-OH [Ct], in assay [1], the “Hill Slope” value was determined as 1.2, the Bttm is recorded as 32.0, the “Fold Change” value came to 5.2 and the Span is listed as 134.6. In assay [1], this molecule had a Top of 166.7. In assay [1] (setting [6]), the EC50 is given as −8.2.
As for H-KWGWLRFFPGEPFV-OH [Cau], in assay [1], the “Hill Slope” value is 0.8, the Bttm amounted to 50.6, the “Fold Change” value was 6.7 and the Span is given as 286.3. The molecule also came in with a Top in assay [1] of 336.9. Besides, the EC50 in assay [1] (setting [6]) was −8.1.
For the molecule `NCCCC[C@H](NC(=O)[C@H](Cc1c[nH]c2ccccc12)NC(=O)[C@H](Cc1c[nH]c2ccccc12)NC(=O)[C@H](CS)NC(=O)[C@@H](N)Cc1c[nH]c2ccccc12)C(=O)NCC(=O)N[C@@H](CCC(N)=O)C(=O)N1CCC[C@H]1C(=O)N[C@@H](CS)C(=O)N[C@@H](Cc1c[nH]c2ccccc12)C(=O)O` [Fg] (H-WCWWKGQPCW-OH), in assay [1], the “Hill Slope” value is 1.3, the Bttm was determined as 29.2, the “Fold Change” value stood at 8.0 and the Span was 203.0. Also, the Top in assay [1] is 232.2. Moreover, the EC50 in assay [1] (setting [6]) is on record as −7.1.
In assay [2], WCYRIGEPCW (modifications not checked) [Hj peptide ligand #1 (Table 3: …)] registered a Bttm (FUS1p-RFP reporter) (fluorescence/A600 (not given)) of 53, an EC50 (FUS1p-RFP reporter) (log10 M (not given)) of -7.8, a Fold Change (FUS1p-RFP reporter) of 8.1 fold and a Span (FUS1p-RFP reporter) (fluorescence/A600 (not given)) of 376. The molecule also gave a Top (FUS1p-RFP reporter) (fluorescence/A600 (not given)) in assay [2] of 430.
For the molecule WMWTRYGRFSPV [Le peptide ligand #1 WMWTRYGRFSPV], in assay [3], the “Bttm (FUS1p-RFP reporter)” value was 22.9 fluorescence/A600 (not printed), the “EC50 (FUS1p-RFP reporter)” value was -7.7 log10 M (not printed), the “Fold Change (FUS1p-RFP reporter)” value is 18 fold and the “Span (FUS1p-RFP reporter)” value is 390 fluorescence/A600 (not printed). In addition, the “Top (FUS1p-RFP reporter)” value in assay [3] is 412 fluorescence/A600 (not printed).
Consider WCMRPGQPCW [Bb peptide ligand #1 WCMRPGQPCW], for which, in assay [4], the “Bttm (FUS1p-RFP reporter)” value is 25.2 fluorescence/A600 (not printed), the “EC50 (FUS1p-RFP reporter)” value is -8.5 log10 M (not printed), the “Fold Change (FUS1p-RFP reporter)” value was found to be 9.7 fold and the “Span (FUS1p-RFP reporter)” value was 219 fluorescence/A600 (not printed). Also, the “Top (FUS1p-RFP reporter)” value in assay [4] is 244 fluorescence/A600 (not printed).
WCGRPGQPC [Bc peptide ligand #1 WCGRPGQPC]: in assay [5], the “Bttm (FUS1p-RFP reporter)” value was 28.6 fluorescence/A600 (not printed), the “EC50 (FUS1p-RFP reporter)” value was -8.1 log10 M (not printed), the “Fold Change (FUS1p-RFP reporter)” value is 12.3 fold and the “Span (FUS1p-RFP reporter)” value was 323 fluorescence/A600 (not printed). Further, the “Top (FUS1p-RFP reporter)” value in assay [5] is 352 fluorescence/A600 (not printed).

B1: She. Ste2: genome-mined mating GPCR activated by near-cognate peptide with two additional N-terminal residues (protein)
chain: MKPAAGPASSPFDPFNQTFYLTGPDNTTVPVSVPQVDYIWHYIIGTSINYGSQIGACLLMLLVMLTLTSKSRFSRAATLINVASLLIGVIRCVLLAVYFTSSLTELYALFVGDYSQVRRSDLCVSAVATFFSLPQLVLIEAALFLQAYSMIKMWPSLWRAVVLAMSVVVAVCAIGFKFASVVMRMRSTLTLDDSLDFWLVEVDLAFTATTIFWFCFIYIIRLVIHMWEYRSILPPMGSVSAMEVLVMTNGALMLVPVIFAAIEINGLSSFESGSLVHTSVIVLLPLGSLIAQAMTRPDGYVQRTNTSGASGASGAHPGRNGSGHGGHGGAYSRAMTNTLNTLDTLDTVDSKTSIMHHHHHHHRNHSNGMSKTKANSGTWSHASDANSTNAMISGGIATQVRIQANQSTLGNTGMSGGSGAPNSHTRNNSLAAMEPVEKQLHDIDATPLSASDCRVWVDREVEVRRDMV
On to B1, for which the “activation by alternative near-cognate peptide ligand candidates” value in assay [1] (40 μM synthetic peptide ligand, 8 hours) is reported as “can be activated”.

The values are drawn from patent publication US20220119825A1, “SCALABLE PEPTIDE-GPCR INT[…] SYSTEMS” (THE TRUSTEES OF COLUMBIA UNIVERSITY IN THE CITY OF NEW YORK, priority 2019, published 2022).
